# Paper PMC12785804, “Triterpenoids CDDO and CDDO-EA Inhibit the Replication of Hepatitis B Virus by Modulating Nucleocapsid Assembly” (International Journal of Molecular Sciences, 2025)
# Tests used:
# [1] = target: T1, HBc protein (HBV core protein), purchased (Hepatitis B virus ayw/France/Tiollais/1979, UniProt P03146); assay: SPR (Reichert4, CM5 chip); type: binding
# T1 construct: gene C; purchased from Sino Biological; immobilised on CM5 chip
# [2] = target: T2, HBc (HBV core protein) in HepAD38 lysate (Hepatitis B virus ayw/France/Tiollais/1979, UniProt P03146); assay: CETSA, Western blot; type: biochemical; settings: cell lysate, 30 min at room temperature, then 37-72 °C for 3 min
# T2 construct: gene C; full-length core expressed from the integrated tetracycline-regulated HBV genome of HepAD38 (HepG2-derived); freeze-thaw cell lysate
# T2 sequence (P03146 whole entry): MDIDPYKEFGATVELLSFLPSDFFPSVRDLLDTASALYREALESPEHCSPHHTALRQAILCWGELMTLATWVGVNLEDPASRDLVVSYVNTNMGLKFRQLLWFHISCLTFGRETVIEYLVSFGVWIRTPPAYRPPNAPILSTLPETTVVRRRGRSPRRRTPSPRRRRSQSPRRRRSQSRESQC
# T1 sequence (P03146 whole entry): as above
SMILES,SPR binding [1],thermal shift (right-shifted CETSA melting curve) ([2]; 0.8 μM compound),thermal shift (right-shifted CETSA melting curve) ([2]; 0.4 μM compound)
"CC1(C)CC[C@]2(C(=O)O)CC[C@]3(C)[C@H](C(=O)C=C4[C@@]5(C)C=C(C#N)C(=O)C(C)(C)[C@@H]5CC[C@]43C)[C@@H]2C1 [CDDO, 2-cyano-3,12-dioxooleana-1,9-dien-28-oic acid]",compounds CDDO-EA and CDDO exhibited weak binding kinetics to HBc protein,CDDO-EA and CDDO treatments significantly stabilized HBc protein,
CCNC(=O)[C@]12CCC(C)(C)C[C@H]1[C@H]1C(=O)C=C3[C@@]4(C)C=C(C#N)C(=O)C(C)(C)[C@@H]4CC[C@@]3(C)[C@]1(C)CC2 [CDDO-EA],compounds CDDO-EA and CDDO exhibited weak binding kinetics to HBc protein,,CDDO-EA and CDDO treatments significantly stabilized HBc protein
